Earlier results, collected in patent US20250092340A1, “METHOD FOR INDUSTRIALLY PRODUCING MOGROSIDE, FRUCTUS MOMORDICAE SUGAR/WINE AND MANNITOL FROM FRESH FRUCTUS MOMORDICAE” (priority 2022, published 2025).

Conditions: background statement

Structure (SMILES)	sweetness relative to sucrose
C[C@H](CC[C@@H](O[C@@H]1O[C@H](CO)[C@@H](O)[C@H](O)[C@H]1O[C@@H]1O[C@H](CO)[C@@H](O)[C@H](O)[C@H]1O)C(C)(C)O)[C@H]1CC[C@@]2(C)[C@H]3CC=C4[C@@H](CC[C@H](O[C@@H]5O[C@H](CO[C@@H]6O[C@H](CO)[C@@H](O)[C@H](O)[C@H]6O)[C@@H](O)[C@H](O)[C@H]5O)C4(C)C)[C@]3(C)[C@H](O)C[C@]12C [mogroside IV]	126 folds of that of sucrose
C[C@H](CC[C@@H](O[C@@H]1O[C@H](CO[C@@H]2O[C@H](CO)[C@@H](O)[C@H](O)[C@H]2O)[C@@H](O)[C@H](O)[C@H]1O[C@@H]1O[C@H](CO)[C@@H](O)[C@H](O)[C@H]1O)C(C)(C)O)[C@H]1CC[C@@]2(C)[C@@H]3CC=C4[C@@H](CC[C@H](O[C@@H]5O[C@H](CO[C@@H]6O[C@H](CO)[C@@H](O)[C@H](O)[C@H]6O)[C@@H](O)[C@H](O)[C@H]5O)C4(C)C)[C@]3(C)[C@H](O)C[C@]12C [mogroside V]	256-344 folds of that of sucrose
